Drawing on article PMC11939327, “Chaetocin, a Natural Inhibitor of Transketolase, Suppresses the Non-Oxidative Pentose Phosphate Pathway and Inhibits the Growth of Drug-Resistant Non-Small Cell Lung Cancer” (Antioxidants, 2025), this text covers Kd for 1 molecule.

The assay concerns the target T1, transketolase (TKT) (Homo sapiens, UniProt P29401).
T1 sequence (P29401 1-623): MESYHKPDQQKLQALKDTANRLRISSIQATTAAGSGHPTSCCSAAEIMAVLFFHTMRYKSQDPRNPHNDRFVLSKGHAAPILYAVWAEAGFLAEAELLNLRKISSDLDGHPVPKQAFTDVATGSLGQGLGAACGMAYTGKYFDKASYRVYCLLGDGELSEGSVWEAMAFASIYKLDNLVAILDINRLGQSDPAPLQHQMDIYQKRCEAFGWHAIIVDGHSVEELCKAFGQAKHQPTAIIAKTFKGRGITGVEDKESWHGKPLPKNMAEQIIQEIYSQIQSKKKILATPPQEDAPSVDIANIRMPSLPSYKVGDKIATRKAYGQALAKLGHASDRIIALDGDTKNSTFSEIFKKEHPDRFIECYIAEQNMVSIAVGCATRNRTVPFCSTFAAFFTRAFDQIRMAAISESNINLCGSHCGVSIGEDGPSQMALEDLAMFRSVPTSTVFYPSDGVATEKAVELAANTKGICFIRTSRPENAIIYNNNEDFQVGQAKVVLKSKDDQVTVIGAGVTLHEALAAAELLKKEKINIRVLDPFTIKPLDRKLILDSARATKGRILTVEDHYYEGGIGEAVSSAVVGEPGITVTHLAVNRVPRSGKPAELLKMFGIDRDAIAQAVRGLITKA
The assay can be described thus: Bio-layer interferometry with biotinylated TKT on SA biosensors; supported by DARTS and CETSA in A549/DDP cells. It counts as binding.

In turn, `CN1C(=O)[C@@]23C[C@]4([C@]56C[C@@]78SS[C@@](CO)(C(=O)N7[C@H]5Nc5ccccc56)N(C)C8=O)c5ccccc5N[C@@H]4N2C(=O)[C@]1(CO)SS3` [chaetocin] displayed a Kd of 63.2 µM.
